Here are results for two compounds from patent publication US5591726A, “Heterocyclylalkyl diarylboron ester and thioester fungicidal agents” (American Cyanamid Company, priority 1994, dated 1997).

Assay [1] concerns Ustilago avenae (triadimefon-resistant and -sensitive strains). The format is cell-based. Conditions: EC50 resistant strain / EC50 sensitive strain, 50 to 54 hours.
In assay [2] the test system is Septoria nodorum (propiconazole-resistant and -sensitive strains). Format: cell-based. The note with it: EC50 resistant strain / EC50 sensitive strain, 50 to 54 hours.

On to `OC(c1ccc(Cl)cc1)(c1cncnc1)c1ccccc1Cl` (stereo not drawn) [Fenarimol, reference compound], for which the “Resistance Factor, Ustilago avenae” value in assay [1] was 9.9. Moreover, the “Resistance Factor, Septoria nodorum” value in assay [2] is 9.6.

In the case of `CC(C)(C)C(O)(CCc1ccc(Cl)cc1)Cn1cncn1` (stereo not drawn) [Tebuconazole, reference compound], the “Resistance Factor, Septoria nodorum” value in assay [2] stood at 6.1.
